In PubChem BioAssay AID2060603 (Molecular Pharmacology Branch, DTP, NCI, 2025):

Test system: 422866-222-R5-J1-PDC spheroid viability
Assay: Anticancer human tumor 422866-222-R5-J1-PDC patient-derived pancreatic adenocarcinoma cell line growth inhibition [CLK]
Conditions: spheroids with HUVEC and MSC; for IC50: curve of first compound; for viability, T/C: stronger effect = lower value
Summary of the method: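 Multi-cell-type spheroids combined patient-derived tumor cells with HUVEC endothelial cells and human mesenchymal stem cells. Paired agents were dosed in half-log steps down from about clinical Cmax, or from 10 microM where Cmax was unknown.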

[1] = second compound 0.0316 µM, first compound 0.0316 µM
[2] = second compound 0.0316 µM, first compound 0.1 µM
[3] = second compound 0.0316 µM, first compound 0.316 µM
[4] = second compound 0.0316 µM, first compound 1 µM
[5] = second compound 0.0316 µM, first compound 3.16 µM
[6] = second compound 0.0316 µM, first compound 10 µM
[7] = second compound 0.1 µM, first compound 0.0316 µM
[8] = second compound 0.1 µM, first compound 0.1 µM
[9] = second compound 0.1 µM, first compound 0.316 µM
[10] = second compound 0.1 µM, first compound 1 µM
[11] = second compound 0.1 µM, first compound 3.16 µM
[12] = second compound 0.1 µM, first compound 10 µM
[13] = second compound 0.316 µM, first compound 0.0316 µM
[14] = second compound 0.316 µM, first compound 0.1 µM
[15] = second compound 0.316 µM, first compound 0.316 µM
[16] = second compound 0.316 µM, first compound 1 µM
[17] = second compound 0.316 µM, first compound 3.16 µM
[18] = second compound 0.316 µM, first compound 10 µM
[19] = second compound 1 µM, first compound 0.0316 µM
[20] = second compound 1 µM, first compound 0.1 µM
[21] = second compound 1 µM, first compound 0.316 µM
[22] = second compound 1 µM, first compound 1 µM
[23] = second compound 1 µM, first compound 3.16 µM
[24] = second compound 1 µM, first compound 10 µM
[25] = second compound 3.16 µM, first compound 0.0316 µM
[26] = second compound 3.16 µM, first compound 0.1 µM
[27] = second compound 3.16 µM, first compound 0.316 µM
[28] = second compound 3.16 µM, first compound 1 µM
[29] = second compound 3.16 µM, first compound 3.16 µM
[30] = second compound 3.16 µM, first compound 10 µM
[31] = second compound 10 µM, first compound 0.0316 µM
[32] = second compound 10 µM, first compound 0.1 µM
[33] = second compound 10 µM, first compound 0.316 µM
[34] = second compound 10 µM, first compound 1 µM
[35] = second compound 10 µM, first compound 3.16 µM
[36] = second compound 10 µM, first compound 10 µM
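Further: spheroids exposed to agents for seven days before readout.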

CC(C)CC(NC(=O)C(Cc1ccccc1)NC(=O)c1cnccn1)B(O)O (stereo unspecified) + CNC(=O)c1ccc(Nc2nc(OC3CCCC3)c3c(-c4ccc5nc(C)oc5c4)c[nH]c3n2)c(OC)c1
IC50 (second compound 0.0316 µM): 0.00565 µM | IC50 (second compound 0.1 µM): 0.00552 µM | IC50 (second compound 0.316 µM): 0.00454 µM | IC50 (second compound 1 µM): 0.00419 µM | IC50 (second compound 3.16 µM): 0.00429 µM | IC50 (second compound 10 µM): 0.00412 µM | viability, T/C (second compound 0.0316 µM, first compound 0.000949 µM): 94% | viability, T/C (second compound 0.0316 µM, first compound 0.003 µM): 88.6% | viability, T/C (second compound 0.0316 µM, first compound 0.00949 µM): 18.5% | viability, T/C (second compound 0.0316 µM, first compound 0.03 µM): 2.14% | viability, T/C (second compound 0.0316 µM, first compound 0.0949 µM): 0.75% | viability, T/C (second compound 0.0316 µM, first compound 0.3 µM): 0.67% | viability, T/C (second compound 0.1 µM, first compound 0.000949 µM): 115% | viability, T/C (second compound 0.1 µM, first compound 0.003 µM): 90.8% | viability, T/C (second compound 0.1 µM, first compound 0.00949 µM): 13.8% | viability, T/C (second compound 0.1 µM, first compound 0.03 µM): 1.87% | viability, T/C (second compound 0.1 µM, first compound 0.0949 µM): 1.7% | viability, T/C (second compound 0.1 µM, first compound 0.3 µM): 1.33% | viability, T/C (second compound 0.316 µM, first compound 0.000949 µM): 108% | viability, T/C (second compound 0.316 µM, first compound 0.003 µM): 70.2% | viability, T/C (second compound 0.316 µM, first compound 0.00949 µM): 13.9% | viability, T/C (second compound 0.316 µM, first compound 0.03 µM): 1.54% | viability, T/C (second compound 0.316 µM, first compound 0.0949 µM): 0.87% | viability, T/C (second compound 0.316 µM, first compound 0.3 µM): 1.27% | viability, T/C (second compound 1 µM, first compound 0.000949 µM): 96.5% | viability, T/C (second compound 1 µM, first compound 0.003 µM): 67.8% | viability, T/C (second compound 1 µM, first compound 0.00949 µM): 6.77% | viability, T/C (second compound 1 µM, first compound 0.03 µM): 1.53% | viability, T/C (second compound 1 µM, first compound 0.0949 µM): 3.06% | viability, T/C (second compound 1 µM, first compound 0.3 µM): 2.68% | viability, T/C (second compound 3.16 µM, first compound 0.000949 µM): 86.8% | viability, T/C (second compound 3.16 µM, first compound 0.003 µM): 69.7% | viability, T/C (second compound 3.16 µM, first compound 0.00949 µM): 6.4% | viability, T/C (second compound 3.16 µM, first compound 0.03 µM): 1.59% | viability, T/C (second compound 3.16 µM, first compound 0.0949 µM): 1.4% | viability, T/C (second compound 3.16 µM, first compound 0.3 µM): 0.99% | viability, T/C (second compound 10 µM, first compound 0.000949 µM): 84.8% | viability, T/C (second compound 10 µM, first compound 0.003 µM): 66.5% | viability, T/C (second compound 10 µM, first compound 0.00949 µM): 6.65% | viability, T/C (second compound 10 µM, first compound 0.03 µM): 1.39% | viability, T/C (second compound 10 µM, first compound 0.0949 µM): 1.44% | viability, T/C (second compound 10 µM, first compound 0.3 µM): 1.32%

CC(=O)O[C@H]1C(=O)[C@@]2(C)[C@H]([C@H](OC(=O)c3ccccc3)[C@]3(O)C[C@H](OC(=O)[C@H](O)[C@@H](NC(=O)c4ccccc4)c4ccccc4)C(C)=C1C3(C)C)[C@]1(OC(C)=O)CO[C@@H]1C[C@@H]2O + CN1CCN(c2cc(C(=O)Nc3cc4cc(-c5cnn(C)c5)ccc4cn3)ccn2)CC1
IC50 (second compound 0.0316 µM): > 10 µM | IC50 (second compound 0.1 µM): > 10 µM | IC50 (second compound 0.316 µM): > 10 µM | IC50 (second compound 1 µM): < 0.0316 µM | IC50 (second compound 3.16 µM): < 0.0316 µM | IC50 (second compound 10 µM): < 0.0316 µM | viability, T/C [1]: 72.2% | viability, T/C [2]: 61.6% | viability, T/C [3]: 61.4% | viability, T/C [4]: 69.7% | viability, T/C [5]: 78.1% | viability, T/C [6]: 85.3% | viability, T/C [7]: 70.5% | viability, T/C [8]: 61.9% | viability, T/C [9]: 73.1% | viability, T/C [10]: 81.5% | viability, T/C [11]: 83.8% | viability, T/C [12]: 95.4% | viability, T/C [13]: 68.7% | viability, T/C [14]: 73% | viability, T/C [15]: 72.3% | viability, T/C [16]: 69.7% | viability, T/C [17]: 72.7% | viability, T/C [18]: 85.4% | viability, T/C [19]: 21.8% | viability, T/C [20]: 20.5% | viability, T/C [21]: 18.8% | viability, T/C [22]: 19.6% | viability, T/C [23]: 18.7% | viability, T/C [24]: 16.4% | viability, T/C [25]: 6.64% | viability, T/C [26]: 7.47% | viability, T/C [27]: 8.49% | viability, T/C [28]: 4.12% | viability, T/C [29]: 9.46% | viability, T/C [30]: 8% | viability, T/C [31]: 1.52% | viability, T/C [32]: 1.43% | viability, T/C [33]: 1.2% | viability, T/C [34]: 1.05% | viability, T/C [35]: 0.96% | viability, T/C [36]: 1.27%

O=C(c1cc(Cc2n[nH]c(=O)c3ccccc23)ccc1F)N1CCN(C(=O)C2CC2)CC1 + CNC(=O)c1ccc(Nc2nc(OC3CCCC3)c3c(-c4ccc5nc(C)oc5c4)c[nH]c3n2)c(OC)c1
IC50 (second compound 0.0316 µM): > 10 µM | IC50 (second compound 0.1 µM): > 10 µM | IC50 (second compound 0.316 µM): > 10 µM | IC50 (second compound 1 µM): > 10 µM | IC50 (second compound 3.16 µM): > 10 µM | IC50 (second compound 10 µM): > 10 µM | viability, T/C [1]: 103% | viability, T/C [2]: 104% | viability, T/C [3]: 112% | viability, T/C [4]: 110% | viability, T/C [5]: 90.6% | viability, T/C [6]: 90.2% | viability, T/C [7]: 111% | viability, T/C [8]: 110% | viability, T/C [9]: 108% | viability, T/C [10]: 110% | viability, T/C [11]: 91.9% | viability, T/C [12]: 72% | viability, T/C [13]: 85.2% | viability, T/C [14]: 84.7% | viability, T/C [15]: 77.2% | viability, T/C [16]: 71.2% | viability, T/C [17]: 76.1% | viability, T/C [18]: 60.6% | viability, T/C [19]: 71.3% | viability, T/C [20]: 63.9% | viability, T/C [21]: 64% | viability, T/C [22]: 52.1% | viability, T/C [23]: 71.3% | viability, T/C [24]: 65.7% | viability, T/C [25]: 68% | viability, T/C [26]: 85.8% | viability, T/C [27]: 68.1% | viability, T/C [28]: 66.9% | viability, T/C [29]: 57.8% | viability, T/C [30]: 59.2% | viability, T/C [31]: 66.1% | viability, T/C [32]: 75.8% | viability, T/C [33]: 58.3% | viability, T/C [34]: 62.1% | viability, T/C [35]: 62.4% | viability, T/C [36]: 51.8%
